From PubChem BioAssay (NCI)
Several values for one entry are separate records, joined by “and”; a condition that tells them apart may be missing. Equal values may be shown once.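 Briefly, cells in 96-well plates were exposed to five compound concentrations for 48 h, and endpoints were estimated by linear interpolation. Here, GI50 denotes the concentration required for 50% inhibition of growth. TGI: total growth inhibition.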

What was measured:
Test in all cases: NCI anticancer screen, dose series, 48 h
[1] = tested on: LOX IMVI melanoma
[2] = tested on: T-47D breast
[3] = tested on: SF-295 CNS
[4] = tested on: SN12C renal
[5] = tested on: MDA-MB-435
[6] = tested on: HOP-92 NSCLC
[7] = tested on: CAKI-1 renal
[8] = tested on: CCRF-CEM leukemia
[9] = tested on: DU-145 prostate
[10] = tested on: SNB-75 CNS
[11] = tested on: SNB-19 CNS
[12] = tested on: A549 NSCLC
[13] = tested on: ACHN renal
[14] = tested on: UACC-257 melanoma
[15] = tested on: OVCAR-5 ovarian
[16] = tested on: IGROV1 ovarian
[17] = tested on: M14 melanoma
[18] = tested on: HT29 colon
[19] = tested on: TK-10 renal
[20] = tested on: SK-MEL-28 melanoma
[21] = tested on: NCI-H460 lung
[22] = tested on: SF-539 CNS
[23] = tested on: SK-MEL-2 melanoma
[24] = tested on: KM12 colon
[25] = tested on: UO-31 renal
[26] = tested on: UACC-62 melanoma
[27] = tested on: 786-0 renal
[28] = tested on: RXF 393 renal
[29] = tested on: SK-OV-3 ovarian
[30] = tested on: MOLT-4 leukemia
[31] = tested on: HCT-116 colon
[32] = tested on: OVCAR-8 ovarian
[33] = tested on: RPMI-8226 leukemia
[34] = tested on: COLO 205 colon
[35] = tested on: NCI-H522 lung
[36] = tested on: MDA-MB-231 breast
[37] = tested on: SF-268 CNS
[38] = tested on: MALME-3M melanoma
[39] = tested on: NCI-H23 lung
[40] = tested on: HCT-15 colon
[41] = tested on: NCI/ADR-RES ovarian
[42] = tested on: SK-MEL-5 melanoma
[43] = tested on: U251 CNS
[44] = tested on: PC-3 prostate
[45] = tested on: BT-549 breast
[46] = tested on: EKVX NSCLC
[47] = tested on: SR leukemia
[48] = tested on: HOP-62 NSCLC
[49] = tested on: HS 578T breast
[50] = tested on: OVCAR-3 ovarian
[51] = tested on: SW-620 colon
[52] = tested on: MCF7 breast
[53] = tested on: HCC-2998 colon
[54] = tested on: K-562 leukemia
[55] = tested on: OVCAR-4 ovarian
[56] = tested on: NCI-H226 lung
[57] = tested on: A498 renal

`CCCCn1c(-c2ccc(C(=O)O/N=C(\N)c3ccc(OC)cc3)cc2)nc(-c2ccccc2)c1-c1ccccc1` was tested, and the GI50 [1] was 0.181 µM, the TGI [1] was 0.342 µM and the GI50 [2] was 1.92 µM. The TGI [2] was 4.59 µM, the GI50 [3] was 1.53 µM and the TGI [3] was 2.97 µM. For the same compound, the GI50 [4] was 1.84 µM, the TGI [4] was 4.46 µM and the GI50 [5] was 1.74 µM. For the same compound, the TGI [5] was 3.28 µM, the GI50 [6] was 0.816 µM and the TGI [6] was 2.41 µM. It also gave a GI50 [7] of 1.29 µM, a TGI [7] of 2.71 µM and a GI50 [8] of 0.556 µM. The TGI [8] was 2.76 µM, the GI50 [9] was 1.27 µM and the TGI [9] was 2.59 µM. The GI50 [10] was 1.36 µM, the TGI [10] was 3.05 µM and the GI50 [11] was 1.91 µM. It also gave a TGI [11] of 5.01 µM, a GI50 [12] of 1.21 µM and a TGI [12] of 3.75 µM. For the same compound, the GI50 [13] was 0.599 µM, the TGI [13] was 1.85 µM and the GI50 [14] was 3.61 µM. For the same compound, the TGI [14] was greater than 100 µM, the GI50 [15] was 2.35 µM and the TGI [15] was greater than 100 µM. The GI50 [16] was 0.334 µM, the TGI [16] was 1.16 µM and the GI50 [17] was 3.07 µM. It also gave a TGI [17] greater than 100 µM, a GI50 [18] of 2.9 µM and a TGI [18] greater than 100 µM. The GI50 [19] was 1.76 µM, the TGI [19] was 3.38 µM and the GI50 [20] was 2.75 µM. It also gave a TGI [20] greater than 100 µM, a GI50 [21] of 1.84 µM and a TGI [21] of 3.87 µM. The GI50 [22] was 1.67 µM, the TGI [22] was 3.24 µM and the GI50 [23] was 2.75 µM. It also gave a TGI [23] of 8.36 µM, a GI50 [24] of 2.91 µM and a TGI [24] greater than 100 µM. It also gave a GI50 [25] of 0.458 µM, a TGI [25] of 1.65 µM and a GI50 [26] of 1.88 µM. For the same compound, the TGI [26] was 4.58 µM, the GI50 [27] was 0.538 µM and the TGI [27] was 1.91 µM. For the same compound, the GI50 [28] was 1.64 µM, the TGI [28] was 3.24 µM and the GI50 [29] was 3.76 µM. The TGI [29] was greater than 100 µM.

`COC(=O)CCC(=O)NC1c2cccc3cccc(c23)Cn2c(=O)n(C)c(=O)n21` (stereo not given) showed a TGI [30] greater than 100 µM, a TGI [1] greater than 100 µM and a TGI [31] greater than 100 µM. It also gave a TGI [32] greater than 100 µM, a TGI [3] greater than 100 µM and a TGI [33] greater than 100 µM. The TGI [34] was greater than 100 µM, the TGI [35] was greater than 100 µM and the TGI [4] was greater than 100 µM. The TGI [36] was greater than 100 µM, the TGI [5] was greater than 100 µM and the TGI [6] was greater than 100 µM. The TGI [37] was greater than 100 µM, the TGI [38] was greater than 100 µM and the TGI [7] was greater than 100 µM. For the same compound, the TGI [39] was greater than 100 µM, the TGI [40] was greater than 100 µM and the TGI [41] was greater than 100 µM. It also gave a TGI [8] greater than 100 µM, a TGI [42] greater than 100 µM and a TGI [9] greater than 100 µM. The TGI [43] was greater than 100 µM, the TGI [10] was greater than 100 µM and the TGI [11] was greater than 100 µM. It also gave a TGI [12] greater than 100 µM, a TGI [13] greater than 100 µM and a TGI [14] greater than 100 µM. It also gave a TGI [15] greater than 100 µM, a TGI [16] greater than 100 µM and a TGI [44] greater than 100 µM. The TGI [17] was greater than 100 µM, the TGI [18] was greater than 100 µM and the TGI [45] was greater than 100 µM. The TGI [46] was greater than 100 µM, the TGI [47] was greater than 100 µM and the TGI [19] was greater than 100 µM. For the same compound, the TGI [20] was greater than 100 µM, the TGI [21] was greater than 100 µM and the TGI [22] was greater than 100 µM. The TGI [23] was greater than 100 µM, the TGI [48] was greater than 100 µM and the TGI [49] was greater than 100 µM. For the same compound, the TGI [50] was greater than 100 µM, the TGI [24] was greater than 100 µM and the TGI [25] was greater than 100 µM. For the same compound, the TGI [51] was greater than 100 µM, the TGI [26] was greater than 100 µM and the TGI [52] was greater than 100 µM. It also gave a TGI [27] greater than 100 µM, a TGI [53] greater than 100 µM and a TGI [28] greater than 100 µM. It also gave a TGI [54] greater than 100 µM, a TGI [29] greater than 100 µM and a TGI [55] greater than 100 µM.

For `CC(=O)OCC1OC(n2c(-c3ccccc3)cc(-c3ccccc3)c(C#N)c2=O)C(OC(C)=O)C(OC(C)=O)C1OC(C)=O` (stereo not given), the GI50 [33] was 16 µM and 39.7 µM, the TGI [33] was greater than 100 µM and the GI50 [10] was 22 µM and 98.5 µM. It also gave a TGI [10] greater than 100 µM and a TGI [28] greater than 100 µM.

`CC(=O)OC[C@]12CC[C@H]3[C@@H](C[C@H]4O[C@]45CC=CC(=O)[C@]35C)[C@]1(O)CC[C@@]2(O)[C@@](C)(O)C1CC(C)=C(C)C(=O)O1` (stereo not given in full) gave a TGI [30] greater than 36.2 µM, a TGI [32] greater than 32.1 µM and a TGI [3] greater than 32.5 µM. The GI50 [33] was greater than 100 µM, the TGI [33] was greater than 100 µM and the TGI [4] was greater than 32 µM. For the same compound, the TGI [36] was greater than 23.6 µM, the TGI [40] was greater than 33.6 µM and the GI50 [41] was greater than 23.6 µM. For the same compound, the TGI [41] was greater than 100 µM, the TGI [56] was greater than 20 µM and the TGI [9] was greater than 32.8 µM. The TGI [11] was greater than 35.4 µM, the TGI [14] was greater than 32.8 µM and the TGI [15] was greater than 20.1 µM. It also gave a TGI [44] greater than 26.1 µM, a TGI [46] greater than 30.4 µM and a TGI [47] greater than 38 µM. The TGI [25] was greater than 25 µM, the TGI [52] was greater than 25.3 µM and the TGI [54] was greater than 100 µM. It also gave a TGI [29] greater than 23.7 µM and a TGI [55] greater than 34.9 µM.

`COC(=O)c1ccc2c(c1)n(Cc1ccc3ccccc3c1)c[n+]2Cc1ccc2ccccc2c1` gave a GI50 [3] of 1.86 µM, a TGI [3] of 5.56 µM and a GI50 [5] of 1.33 µM. The TGI [5] was 2.75 µM, the GI50 [37] was 1.5 µM and the TGI [37] was 3.02 µM. The GI50 [40] was 4.48 µM, the TGI [40] was 26.8 µM and the GI50 [41] was 24 µM. It also gave a TGI [41] greater than 100 µM, a GI50 [8] of 1.79 µM and a TGI [8] of 4.46 µM. For the same compound, the GI50 [42] was 1.46 µM, the TGI [42] was 2.78 µM and the GI50 [56] was 1.96 µM. The TGI [56] was 4.44 µM, the GI50 [9] was 1.77 µM and the TGI [9] was 3.52 µM. The GI50 [12] was 11.3 µM, the TGI [12] was 36.8 µM and the GI50 [13] was 10.2 µM. For the same compound, the TGI [13] was 29.8 µM, the GI50 [15] was 2.12 µM and the TGI [15] was 13.7 µM. It also gave a GI50 [57] of 2.23 µM, a TGI [57] of 6.49 µM and a GI50 [46] of 3.01 µM. The TGI [46] was 20.4 µM, the GI50 [48] was 1.8 µM and the TGI [48] was 4.28 µM. It also gave a GI50 [49] of 1.76 µM, a TGI [49] of 4.65 µM and a GI50 [50] of 1.37 µM. The TGI [50] was 2.78 µM, the GI50 [24] was 1.37 µM and the TGI [24] was 2.83 µM. For the same compound, the GI50 [25] was 13 µM, the TGI [25] was 63.9 µM and the GI50 [29] was 2.82 µM. For the same compound, the TGI [29] was 13.4 µM.
